Experimental data taken from patent US20140323581A1, “TRANSCRIPTOME WIRING ANALYSIS IN PARKINSON'S DISEASE AND USES THEREOF” (THE TRUSTEES OF COLUMBIA UNIVERSITY IN THE CITY OF NEW YORK, priority 2011, published 2014).
Entries after “also recorded” stand apart in the source; their conditions may differ.

Legend:
human aSyn 3′UTR = assay: Firefly luciferase-aSyn 3′UTR reporter assay in SH-SY5Y cells; format: cell-based; conditions: for luciferase expression, Firefly/Renilla ratio, 1.1 kb human aSyn 3′UTR vector: 100 μM for 24 h
Procedure: The human SH-SY5Y neuroblastoma cell line (ATCC) was cultured following the distributor's instructions. Cells were plated at a density of 4×10^5 cells per well (in 48-well plates) in wells coated with 0.1% gelatin (Specialty Media, Millipore) 24 hours prior to transfection. Transfections were performed with Lipofectamine 2000 reagent (Invitrogen) following the manufacturer's instructions. The human HEK-293T cell line (ATCC) was cultured in DMEM (Invitrogen) supplemented with 10% FBS (Invitrogen). Cells were plated at a density of 8×10^3 cells per well (96-well plates). Mir-34b-3p precursor, specific Anti-miR Mir-34b-3p inhibitor, Anti-miR Negative Control #1, and Pre-miR Negative Control #1 were purchased from Ambion. Cells were co-transfected with luciferase reporter plasmids and a small RNA or inhibitor (as indicated) using siPort NeoFx reagent (Ambion) following manufacturer's protocol. Luciferase and Renilla activities were measured 24 h or 48 h after transfection using Dual-Glo luciferase assay system (Promega).

aSynL:total ratio [1] = assay: aSynL:total ratio by RT-qPCR in rat primary cortical cultures; format: cell-based; conditions: for aSynL:total ratio: rat primary cortical neurons, RT-qPCR, dopamine, picrotoxin, muscimol, NMDA 100 μM, kainic acid 50 μM, vs vehicle; for dopamine-mediated potentiation of the aSynL:total ratio: nomifensine 100 μM with dopamine 100 μM for 24 h
Procedure: (§1) Cultures of rodent neurons were prepared as described in ^53. Cells were maintained in vitro for 3-5 days before drug treatments or transfection using Lipofectamine 2000 (Iinvitrogen) following manufacturer's instructions.
RT-qPCR analyses were performed as described ^60. The human aSynL:Total mRNA ratio was quantified in terms of AACt ^60 using primer pair Lh for the human long form (HaSynLfw [[…]] SEQ ID NO: 13, and HaSynLry [[…]]) SEQ ID NO: 14 and primer pair Th for human total (HaSynTfw [[…]] SEQ ID NO: 15 and HaSynTrv [[…]] SEQ ID NO: 16). For analysis of either mouse or rat, primer pairs mrL (RaSynLfw [[…]] SEQ ID NO: 17 and RaSynLrv [[…]] SEQ ID NO: 18) and mrT (RaSynTfw [[…]] SEQ ID NO: 19, RaSynTry [[…]] SEQ ID NO: 20) were used.

aSynL/total ratio = aSynL/total ratio in SK-N-MC cells treated with chronic low-dose rotenone (reanalysis of GEO GSE4773); format: cell-based, human; conditions: one or two weeks vs vehicle
aSyn protein [2] = assay: aSyn protein by ELISA in mitochondrial and membrane fractions of SH-SY5Y cells; format: cell-based, human; conditions: 100 μM for 48 h
Procedure: (§2) Mitochondria were purified using Qproteome Mitochondria Isolation Kit (Qiagen) and membrane fractions were isolated using Subcellular Protein Fractionation Kit (Pierce) following manufacturers' instructions. Human aSyn protein levels were determined using the aSyn Human ELISA kit (Invitrogen). Absorbance was read on a VersaMax ELISA Microplate Reader (Molecular Devices, Inc) at 450 nm. The amount of human aSyn was normalized to total cellular protein as determined with the DC Protein Assay Reagent kit (Bio-Rad). Mitochondrial preparations were validated by Western blot analysis for Tom20 and synaptophysin (see FIG. 12d).

aSynL:total ratio [3] = assay: In situ hybridization for aSyn CDS and long 3′UTR in primary cortical neuron cultures from aSyn PAC transgenic mice; format: cell-based; conditions: 100 μM for 24 h, DIV 4 PAC mouse cortical neurons
Procedure: as §1
In situ hybridization were performed using QuantiGene® ViewRNA ISH Cell Assay (Panomics) following manufacturer's instructions, with QG ViewRNA TYPE 8 Probe Sets (Panomics) designed to target either human aSyn CDS sequences (bases 264-634 from NM_000345.3; Panomics) or to target human aSynL 3′UTR sequences (bases 1180-1760 from NM_000345.3).

aSyn protein [4] = assay: Colocalization of aSyn and Mitotracker in primary cortical neuron cultures from PAC transgenic mice; format: cell-based; conditions: primary mouse cortical neurons, 100 μM for 24 h
Procedure: as §1
Immunostainings were done as previously described ^59 with Rabbit anti-aSyn (Santa Cruz, 1:200) or Mouse anti-Synaptophysin (Millipore, 1:100) as primary antibodies, and Alexa 555 goat anti-rabbit IgG or Alexa 633 goat anti-mouse IgG (Invitrogen) secondary antibodies. MitoTracker-Orange (Invitrogen, 1:10000) was added into media for 15-20 min in living cell culture. Collocalization analyses were done in R using EBImage package; using Pearson's correlation coefficient.

aSyn protein [5] = assay: Total endogenous aSyn protein by ELISA in SH-SY5Y cells; format: cell-based, human; conditions: 100 μM for 48 h
Procedure: as §2

## NCc1cc(=O)[nH]o1 [muscimol]
Human aSyn 3′UTR; SH-SY5Y
  luciferase expression, Firefly/Renilla ratio, 1.1 kb human aSyn 3′UTR vector: decreased
aSynL:total ratio [1]
  aSynL:total ratio: alter

## CN1CCCC1c1cccnc1 (stereo not shown) [nicotine]
Human aSyn 3′UTR; nicotine 100 μM, with or without dopamine 100 μM, 24 h
  expression of an aSynL-3′UTR bearing reporter gene (Firefly/Renilla): decreases

## CN1Cc2c(N)cccc2C(c2ccccc2)C1 (stereo not shown) [nomifensine]
Human aSyn 3′UTR; SH-SY5Y, dopamine 100 μM with nomifensine 100 μM, 24 h
  dopamine-increased luciferase accumulation, luciferase-aSyn 3′UTR vector: suppressed
aSynL:total ratio [1]
  dopamine-mediated potentiation of the aSynL:total ratio: suppressed sensitivity
aSynL:total ratio [1]; listed as Nomifensine
  dopamine-mediated potentiation of the aSynL:total ratio: suppresses

## C=C(C)[C@H]1Cc2c(ccc3c2O[C@@H]2COc4cc(OC)c(OC)cc4[C@@H]2C3=O)O1 [rotenone]
aSynL/total ratio
  aSynL/total ratio (Affymetrix probesets 204467_s_at and 211546_x_at): predictably modify; also recorded: increased
aSynL/total ratio; listed as Rotenone
  aSynL/total ratio (Affymetrix probesets 204467_s_at and 211546_x_at): Mitochondrial toxin increases aSynL: total ratio

## picrotoxin
aSyn protein [2]
  aSyn content within total cell membrane fraction relative to whole cell lysate (ELISA): decreased; also recorded: reduction
  aSyn protein content in mitochondrial preparations relative to whole cell aSyn content (ELISA): increased proportion; also recorded: preferentially increased
aSynL:total ratio [3]
  aSynL:total ratio (ratio of in situ hybridization signals): increase
Human aSyn 3′UTR; SH-SY5Y
  luciferase expression, Firefly/Renilla ratio, 1.1 kb human aSyn 3′UTR vector: increased
Human aSyn 3′UTR; SH-SY5Y, 100 μM for 24 hrs
  luciferase expression, Firefly/Renilla ratio, short aSyn 3′UTR vector: do not influence
aSynL:total ratio [1]
  aSynL:total ratio: significantly increased; also recorded: alter
aSyn protein [4]
  fraction of aSyn protein that colocalized with mitochondria (Mitotracker): significantly increased
aSyn protein [5]
  endogenous aSyn protein levels (ELISA, normalized to total protein): significantly increased
